PubChem BioAssay (NCI)
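Cells were grown in 96-well plates and exposed to each compound for 48 hours at five concentrations; endpoints were interpolated linearly between bracketing concentrations, or set to the highest concentration if not reached. The concentration for full growth arrest is given as TGI.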

Key:
Experiment in all cases: DTP human tumour cell line panel, 48 h
[1] = tested on: MCF7 breast
[2] = tested on: OVCAR-4 ovarian
[3] = tested on: NCI/ADR-RES ovarian
[4] = tested on: SF-539 CNS
[5] = tested on: SK-MEL-28 melanoma
[6] = tested on: U251 CNS
[7] = tested on: MDA-MB-231 breast
[8] = tested on: OVCAR-8 ovarian
[9] = tested on: SN12C renal
[10] = tested on: SNB-75 CNS
[11] = tested on: UO-31 renal
[12] = tested on: MDA-MB-435
[13] = tested on: MDA-N
[14] = tested on: BT-549 breast
[15] = tested on: SK-MEL-5 melanoma
[16] = tested on: CCRF-CEM leukemia
[17] = tested on: SK-MEL-2 melanoma

| SMILES | TGI [1] [µM] | TGI [2] [µM] | TGI [3] [µM] | TGI [4] [µM] | TGI [5] [µM] | TGI [6] [µM] | TGI [7] [µM] | TGI [8] [µM] | TGI [9] [µM] | TGI [10] [µM] | TGI [11] [µM] | TGI [12] [µM] | TGI [13] [µM] | TGI [14] [µM] | TGI [15] [µM] | TGI [16] [µM] | TGI [17] [µM] |
| --- | --- | --- | --- | --- | --- | --- | --- | --- | --- | --- | --- | --- | --- | --- | --- | --- | --- |
| Oc1cc(-c2ccc(Cl)cc2)cn2c1nc1ccccc12 | > 100 | > 100 | > 100 | > 100 | > 100 | > 100 | > 100 | > 100 | > 100 | > 100 | > 100 | > 100 | > 100 | – | – | – | – |
| CC1=C(C)C1[N+](=O)[O-] | > 100 | > 100 | > 100 | > 100 | > 100 | > 100 | > 100 | > 100 | > 100 | > 100 | > 100 | > 100 | > 100 | > 100 | > 100 | > 100 | – |
| NC(=O)C1Cc2cc3c(cc21)OCO3 (configuration not stated) | > 100 | – | > 100 | > 100 | – | – | > 100 | > 100 | – | > 100 | > 100 | – | > 100 | > 100 | > 100 | – | – |
| COc1cc([C@H]2CC(=O)C[C@H](c3cc(OC)c(OC)c(OC)c3)C23C(=O)c2ccccc2C3=O)cc(OC)c1OC | > 100 | – | > 100 | > 100 | > 100 | > 100 | > 100 | > 100 | > 100 | – | > 100 | > 100 | – | > 100 | > 100 | – | > 100 |
| CC(C)C(Sc1nc(-c2ccccc2)c(-c2ccccc2)[nH]1)C(=O)NN (configuration not stated) | – | > 100 | – | > 100 | > 100 | > 100 | – | > 100 | > 100 | > 100 | > 100 | – | – | – | > 100 | > 100 | > 100 |
| CC(=O)N1C(NN(C)C)CCN1c1ccccc1 (configuration not stated) | > 10 | > 10 | – | – | > 10 | – | > 10 | > 10 | > 10 | > 10 | – | > 10 | – | – | > 10 | > 10 | – |
| C/C(=N\NC(=O)c1ccncc1)c1ccccc1F | > 10 | – | > 10 | > 10 | > 10 | > 10 | – | > 10 | > 10 | > 10 | > 10 | – | > 10 | – | > 10 | > 10 | > 10 |
| N#Cc1cc(-c2nc3c(F)cccc3s2)ccc1N | 4.06 | > 100 | > 100 | > 100 | – | > 100 | > 100 | > 100 | > 100 | > 100 | > 100 | > 100 | > 100 | > 100 | > 100 | > 100 | – |
| COCn1cnc2c(=O)n(-c3ccc(OC)cc3)c(=S)n(-c3ccc(OC)cc3)c21 | > 100 | > 100 | > 100 | > 100 | > 100 | > 100 | > 100 | > 100 | > 100 | > 100 | > 100 | > 100 | – | > 100 | > 100 | > 100 | > 100 |
| Cc1ccc(N(C(=O)Nc2ccc(F)c(Cl)c2)C2=NCC(C)S2)cc1 (configuration not stated) | 32.6 | > 100 | 73.2 | > 100 | > 100 | > 100 | > 100 | > 100 | > 100 | > 100 | > 100 | – | > 100 | – | 41 | > 100 | > 100 |
| O=C1CCCC1C(O)(C(F)(F)F)C(F)(F)F (configuration not stated) | > 100 | > 100 | > 100 | > 100 | > 100 | > 100 | > 100 | > 100 | > 100 | > 100 | > 100 | > 100 | > 100 | – | > 100 | > 100 | > 100 |
| CCN(CC)c1c(-c2c(N(CC)CC)c(OC(C)=O)c3sccn3c2=O)c(=O)n2ccsc2c1OC(C)=O | – | > 100 | > 100 | > 100 | > 100 | > 100 | 57 | > 100 | > 100 | 39.3 | > 100 | > 100 | > 100 | > 100 | > 100 | > 100 | > 100 |
| Cn1ccc2c(C(=O)c3ccccc3)cccc2c1=O | – | > 100 | – | > 100 | > 100 | – | – | > 100 | > 100 | 72.3 | – | – | – | – | > 100 | > 100 | > 100 |
| COc1ccc(N2C(=O)C3c4[nH]c5ccccc5c4C4CC(C)CC(C)C4C3C2=O)cc1 (configuration not stated) | – | > 100 | – | > 100 | > 100 | > 100 | – | > 100 | > 100 | > 100 | > 100 | – | – | – | > 100 | > 100 | – |
| CN(C)CC1CCCC(CN(C)C)C1=NOC(=O)c1ccccc1 (configuration not stated) | – | – | – | > 100 | > 100 | > 100 | – | > 100 | > 100 | > 100 | > 100 | – | – | – | > 100 | > 100 | > 100 |
| CN1C(=O)C(c2c[nH]c3ccccc23)N(C)C(=O)C1c1c[nH]c2ccccc12 (configuration not stated) | > 100 | > 100 | > 100 | > 100 | > 100 | > 100 | > 100 | > 100 | > 100 | 88.2 | > 100 | > 100 | > 100 | > 100 | > 100 | > 100 | – |
| CN(C(=O)C1CCCCCC1=O)c1ccccc1Cl (configuration not stated) | – | > 100 | > 100 | > 100 | > 100 | > 100 | > 100 | > 100 | > 100 | > 100 | > 100 | > 100 | – | > 100 | > 100 | – | – |
